Common to all, as to type: cell-based
One test addresses T1, AKT1 E17K (Homo sapiens, UniProt P31749, E17K).
T1 construct: expressed in transfected cells; host or cells: HEK293
Briefly: Live cell AKT1 E17K target engagement by NanoBRET competitive probe displacement. Particulars: HEK293 cells transfected with kinase-NanoLuciferase fusion, 2 h at 37° C. Summed up: (§1)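 Luminescence ratio 600/460 nm served as readout after HEK293 cells bearing transiently expressed kinase–NanoLuciferase fusions were exposed 2 h at 37 °C to test compound alongside an ATP-competitive fluorescent tracer near EC50. Extracellular signal was quenched by a luciferase inhibitor.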
On the technique in general: In BRET a luciferase serves as donor, and the signal depends on an acceptor being close.

The target of a further test is T2, AKT2 (Homo sapiens, UniProt P31751).
T2 construct: expressed in transfected cells; host or cells: HEK293
The test is described as follows: Live cell AKT2 target engagement by NanoBRET competitive probe displacement. Particulars: HEK293 cells transfected with kinase-NanoLuciferase fusion, 2 h at 37° C. The essentials:
as §1

For a further test, the target named is T3, AKT1 WT (Homo sapiens, UniProt P31749).
T3 construct: expressed in transfected cells; host or cells: HEK293
Briefly: Live cell AKT1 WT target engagement by NanoBRET competitive probe displacement. The note with it: HEK293 cells transfected with kinase-NanoLuciferase fusion, 2 h at 37° C. The essentials:
as §1

The subject of test [1] is LAPC4 prostate cancer cells. The test is described as follows: Antiproliferative effects in LAPC4 cells (CellTiter Glo). Particulars: LAPC4 cells (AKT1 E17K allele), read-out: LAPC4 proliferation IC50. The essentials:
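IC50 values reflect 72 h compound treatment of cells plated at 1,000 per well, with CellTiter Glo luminescence as the viability read-out.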
A general note: Cellular ATP, detected with luciferase, serves as a proxy for viable cell number.

Like-named read-outs stand apart in the source and are kept apart here.

T2 sequence (P31751 whole entry): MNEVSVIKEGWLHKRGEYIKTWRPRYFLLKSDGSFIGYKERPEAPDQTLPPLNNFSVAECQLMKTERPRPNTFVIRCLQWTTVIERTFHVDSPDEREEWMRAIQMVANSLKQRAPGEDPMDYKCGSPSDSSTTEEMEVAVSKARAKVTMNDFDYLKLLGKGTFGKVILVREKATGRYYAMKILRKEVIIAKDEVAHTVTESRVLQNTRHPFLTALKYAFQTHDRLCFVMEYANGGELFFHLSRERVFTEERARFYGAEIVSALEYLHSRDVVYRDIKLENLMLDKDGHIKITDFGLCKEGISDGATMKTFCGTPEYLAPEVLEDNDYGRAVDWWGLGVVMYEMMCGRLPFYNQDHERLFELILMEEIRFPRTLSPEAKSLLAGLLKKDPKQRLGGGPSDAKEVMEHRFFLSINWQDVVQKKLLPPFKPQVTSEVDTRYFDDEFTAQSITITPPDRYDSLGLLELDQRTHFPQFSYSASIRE
T3 sequence (P31749 whole entry): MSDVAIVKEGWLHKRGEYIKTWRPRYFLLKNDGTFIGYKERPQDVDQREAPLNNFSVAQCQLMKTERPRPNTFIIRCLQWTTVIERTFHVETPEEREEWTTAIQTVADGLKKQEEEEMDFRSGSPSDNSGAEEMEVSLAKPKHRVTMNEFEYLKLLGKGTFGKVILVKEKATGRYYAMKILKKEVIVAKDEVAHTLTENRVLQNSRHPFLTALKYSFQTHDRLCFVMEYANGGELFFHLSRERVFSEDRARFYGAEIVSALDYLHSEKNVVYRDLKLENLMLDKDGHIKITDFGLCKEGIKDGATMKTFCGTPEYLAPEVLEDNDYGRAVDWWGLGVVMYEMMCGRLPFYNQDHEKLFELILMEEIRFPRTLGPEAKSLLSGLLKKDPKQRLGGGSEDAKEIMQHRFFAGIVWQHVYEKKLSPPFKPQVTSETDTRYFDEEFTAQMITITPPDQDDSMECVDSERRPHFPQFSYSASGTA
T1 sequence (P31749 whole entry E17K): as the sequence (P31749 whole entry) above, with E17K counted along it

In the case of `C=CC(=O)N1CC2(CCCC(N[C@H]3CCc4cc(-n5c(-c6cccnc6N)nc6ccc(-n7cccn7)nc65)ccc43)C2)C1` (single isomer, unassigned) [Example 78, 1-((*)-6-(((S)-5-(2-(2-aminopyridin-3-yl)-5-(1H-pyrazol-1-yl)-3H-imidazo[4,5-b]pyridin-3-yl)-2,3-dihydro-1H-inden-1-yl)amino)-2-azaspiro[3.5]nonan-2-yl)prop-2-en-1-one], the IC50 stood at 63 nM at AKT1 E17K; 136 nM on AKT2; 22 nM on AKT1 WT; 212 nM in test [1] (Homo sapiens, LAPC4, 72 h).
For `C=CC(=O)Nc1ccccc1C(=O)N[C@H]1CCc2cc(-n3c(-c4cccnc4N)nc4ccc(-n5nccn5)nc43)ccc21` [Example 19, (S)-2-acrylamido-N-(5-(2-(2-aminopyridin-3-yl)-5-(2H-1,2,3-triazol-2-yl)-3H-imidazo[4,5-b]pyridin-3-yl)-2,3-dihydro-1H-inden-1-yl)benzamide] the same measures were 27 nM, 326 nM, 15.8 nM and 88 nM.
Regarding `C=CC(=O)Nc1cc(O)ccc1C(=O)N[C@H]1CCc2cc(-n3c(-c4cccnc4N)nc4ccc(-n5cccn5)nc43)ccc21` [Example 70, N-[(1S)-5-[2-(2-aminopyridin-3-yl)-5-(pyrazol-1-yl)imidazo[4,5-b]pyridin-3-yl]-2,3-dihydro-1H-inden-1-yl]-4-hydroxy-2-(prop-2-enamido)benzamide], the IC50 at AKT1 E17K came to 288 nM; at AKT2, 1340 nM; on AKT1 WT it was 83.7 nM; in test [1] (Homo sapiens, LAPC4, 72 h), 1040 nM.
Take `C=CC(=O)N1CCC(N[C@H]2CCc3cc(-n4c(-c5cccnc5N)nc5ccc(-n6cccn6)nc54)ccc32)C[C@H]1COC` (single isomer, unassigned) [Example 130, 1-[(2S,4*)-4-{[(1S)-5-[2-(2-aminopyridin-3-yl)-5-(pyrazol-1-yl)imidazo[4,5-b]pyridin-3-yl]-2,3-dihydro-1H-inden-1-yl]amino}-2-(methoxymethyl)piperidin-1-yl]prop-2-en-1-one]: the IC50 at AKT1 E17K stood at 76.4 nM; at AKT2, 672 nM; at AKT1 WT it was 26.5 nM; in test [1] (72 h) it was 174 nM.
Consider `C=CC(=O)N1CCC(N[C@@H]2c3ccc(-n4c(-c5cccnc5N)nc5ccc(-n6cccn6)nc54)cc3CC2C)CC1` (single isomer, unassigned) [Example 181, 1-(4-{[(1S,2*)-5-[2-(2-aminopyridin-3-yl)-5-(pyrazol-1-yl)imidazo[4,5-b]pyridin-3-yl]-2-methyl-2,3-dihydro-1H-inden-1-yl]amino}piperidin-1-yl)prop-2-en-1-one], for which the IC50 was found to be 58.7 nM at AKT1 E17K, 513 nM at AKT2, 1140 nM on AKT1 WT and 941 nM in test [1] (72 h).
Take `C=CC(=O)N1CCC(N[C@@H]2c3ccc(-n4c(-c5cccnc5N)nc5ccc(-n6cccn6)nc54)cc3CC2F)C(C)C1` (single isomer, unassigned) [Example 288, 1-[(3*,4*)-4-{[(1R,2*)-5-[2-(2-aminopyridin-3-yl)-5-(pyrazol-1-yl)imidazo[4,5-b]pyridin-3-yl]-2-fluoro-2,3-dihydro-1H-inden-1-yl]amino}-3-methylpiperidin-1-yl]prop-2-en-1-one]: the IC50 on AKT1 E17K stood at 38 nM; on AKT2, 212 nM; on AKT1 WT, 2090 nM; in test [1] (72 h) it was 1530 nM.
Take `C=CC(=O)N1CCC(N[C@H]2CCc3cc(-n4c(-c5cccnc5N)nc5ccc(-n6cccn6)nc54)ccc32)C[C@@H]1COC` (single isomer, unassigned) [Example 165, 1-((2R,4*)-4-(((S)-5-(2-(2-aminopyridin-3-yl)-5-(1H-pyrazol-1-yl)-3H-imidazo[4,5-b]pyridin-3-yl)-2,3-dihydro-1H-inden-1-yl)amino)-2-(methoxymethyl)piperidin-1-yl)prop-2-en-1-one]: the IC50 at AKT1 E17K amounted to 143 nM; at AKT2 it was 163 nM; at AKT1 WT it was 39.3 nM; in test [1] (72 h) it was 187 nM.
In the case of `C=CC(=O)N1CCC(N[C@H]2CCc3cc(-n4c(-c5cccnc5N)nc5ccc(-c6ccn(C(F)F)n6)nc54)ccc32)CC1` [Example 107, 1-(4-{[(1S)-5-[2-(2-aminopyridin-3-yl)-5-[1-(difluoromethyl)pyrazol-3-yl]imidazo[4,5-b]pyridin-3-yl]-2,3-dihydro-1H-inden-1-yl]amino}piperidin-1-yl)prop-2-en-1-one], the IC50 at AKT1 E17K is 18.1 nM; on AKT2, 192 nM; on AKT1 WT it was 6.19 nM; in test [1] (Homo sapiens, LAPC4, 72 h), 164 nM.
For the compound `C=CC(=O)N1CC2CC[C@H]1CC2N[C@H]1CCc2cc(-n3c(-c4cccnc4N)nc4ccc(-n5cccn5)nc43)ccc21` (single isomer, unassigned) [Example 134, 1-[(1S,4S,5*)-5-{[(1S)-5-[2-(2-aminopyridin-3-yl)-5-(pyrazol-1-yl)imidazo[4,5-b]pyridin-3-yl]-2,3-dihydro-1H-inden-1-yl]amino}-2-azabicyclo[2.2.2]octan-2-yl]prop-2-en-1-one], the IC50 was 232 nM at AKT1 E17K, 2710 nM at AKT2, 72.4 nM at AKT1 WT and 1150 nM in test [1] (72 h).
For `C=CC(=O)N1CCC(CN[C@H]2CCc3cc(-n4c(-c5cccnc5N)nc5ccc(-n6cccn6)nc54)ccc32)(OC)CC1` [Example 183, 1-[4-({[(1S)-5-[2-(2-aminopyridin-3-yl)-5-(pyrazol-1-yl)imidazo[4,5-b]pyridin-3-yl]-2,3-dihydro-1H-inden-1-yl]amino}methyl)-4-methoxypiperidin-1-yl]prop-2-en-1-one], the IC50 turned out to be 99.4 nM at AKT1 E17K; 633 nM at AKT2; 1260 nM on AKT1 WT; 1600 nM in test [1] (Homo sapiens, LAPC4, 72 h).
With `C=CC(=O)N1CCC(N[C@H]2CCc3cc(-n4c(-c5cccnc5N)nc5ccc(-n6cccn6)nc54)ccc32)C(C)(F)C1` (single isomer, unassigned) [Example 309, 1-((3*,4*)-4-(((S)-5-(2-(2-aminopyridin-3-yl)-5-(1H-pyrazol-1-yl)-3H-imidazo[4,5-b]pyridin-3-yl)-2,3-dihydro-1H-inden-1-yl)amino)-3-fluoro-3-methylpiperidin-1-yl)prop-2-en-1-one], the IC50 was determined as 8.12 nM at AKT1 E17K, 22.4 nM at AKT2, 146 nM on AKT1 WT and 110 nM in test [1] (72 h).
As to `C=CC(=O)N1CCN(N(C)C2CCc3cc(-n4c(-c5cccnc5N)nc5ccc(-n6cccn6)nc54)ccc32)CC1` (single isomer, unassigned) [Example 180, 1-(4-{[(1*)-5-[2-(2-aminopyridin-3-yl)-5-(pyrazol-1-yl)imidazo[4,5-b]pyridin-3-yl]-2,3-dihydro-1H-inden-1-yl](methyl)amino}piperazin-1-yl)prop-2-en-1-one], the IC50 on AKT1 E17K was 18.6 nM; at AKT2 it was 160 nM; at AKT1 WT, 244 nM; in test [1] (72 h), 625 nM.
For the compound `C=CC(=O)N1CCCc2cccc(C(=O)N[C@H]3CCc4cc(-n5c(-c6cccnc6N)nc6ccc(-n7cccn7)nc65)ccc43)c21` [Example 40, N-[(1S)-5-[2-(2-aminopyridin-3-yl)-5-(pyrazol-1-yl)imidazo[4,5-b]pyridin-3-yl]-2,3-dihydro-1H-inden-1-yl]-1-(prop-2-enoyl)-3,4-dihydro-2H-quinoline-8-carboxamide], the IC50 worked out at 94 nM at AKT1 E17K; 265 nM on AKT2; 48.1 nM on AKT1 WT; 948 nM in test [1] (Homo sapiens, LAPC4, 72 h).

Source of the values: US12570655B2, “Cysteine covalent modifiers of AKT1 and uses thereof” (Terremoto Biosciences, Inc., priority 2023, dated 2026).
